Measurements from patent US6855312B1, “Hair care composition” (The Boots Company PLC, priority 1999, dated 2005).

System: Linoleic acid (model skin and hair lipid)
Assay: UVA/B-induced lipid peroxidation of linoleic acid, lipid hydroperoxides by colorimetric test (In Vitro Tests)
Assay type: biochemical
Conditions: first series; compared to irradiated vehicle alone; broad spectrum UVA/B
Procedure: Linoleic acid (model skin and hair lipid) was incubated in the presence of various antioxidants and antoxidant combinations and was exposed to broad spectrum UVA/B to induce oxidation of the lipid. Following extraction of the lipid into methanol, the amount of lipid hydroperoxides (free radical generated damage) formed were measured with a specific colorimetric biochemical test. The degree of inhibition afforded by the antioxidants was thus measured and compared to irradiated vehicle controls.
The percentage inhibition of free radical mediated lipid peroxidation when compared to the vehicle alone are given below.
In a second series of experiments using antoxidants collected in a later season gave the following results.

Structure (SMILES): O=C1O[C@H]([C@@H](O)CO)C([O-])=C1OP(=O)([O-])[O-].[Na+].[Na+].[Na+] [Sodium ascorbyl phosphate]
- % inhibition of free radical mediated lipid peroxidation (observed): 21%
